Experimental data as given in patent US9156826B2, “Asymmetrical reversible neuromuscular blocking agents of ultra-short, short, or intermediate duration” (Cornell University, priority 2012, dated 2015).
Entries after “also recorded” stand apart in the source; their conditions may differ. Read-outs that look alike come from different tables or passages of the source.

Columns and labels:
[1] = tested on: twitch responses of the extensor digitorum of the foot (peroneal nerve stimulation); assay: Spontaneous recovery versus reversal of neuromuscular blockade by cysteine in monkeys; type: in vivo, rhesus monkey (Macaca mulatta); settings: for Reversibility (Cysteine): Table 1, reversal of the blockade by cysteine; for Total Duration (Spontaneous Recovery): injection to 95% twitch height
Protocol: (§1) Selected NMBA compounds were tested as described in PCT/US2010/000796 application by an inventor herein, published as WO2010/107488, which is incorporated by reference, see pages 66-78. Dose-response curves for twitch blockade by test compounds were generated as described. […] Successive doses were separated by at least three estimated half lives beyond complete recovery of the previous dose to TOF of 110-120%, which is normal for these monkeys. Only the first one or two doses yielding 5 to 99% blockade were included from any single experiment for computation of dose-response data. Comparative studies of spontaneous recovery versus antagonism/reversal were done at least 3 estimated half-lives following dose-response studies. ED50 and ED95 were computed from the regression of log dose vs. the logit of percentage blockade of twitch.
(§2) On the day of each study, monkeys received ketamine (7-10 mg/kg i.m.) followed by tracheal intubation under topical anesthesia with 4% lidocaine. Ventilation was controlled at 10 mL/kg and 20 breaths/min with isoflurane (1.0-2.0%) and N2O/O2 (2:1 mixture). Ringers lactate was administered at ˜10 ml kg^−1 h^−1. Arterial pressure was monitored from a femoral, superficial tibial, or radial (22 gauge) cannula. Heart rate was measured by tachograph from the arterial pulse wave. Core temperature was kept at 36.5-38.0° C. by warming blankets. Electrocardiogram and pulse oximetry were monitored continuously.
(§3) Needle electrodes (25 gauge) transmitting square-wave pulses of 0.2 msec duration at supramaximal voltage which were generated by a Grass S-88 stimulator (Grass Instruments, Quincy, Mass.) were placed at the peroneal nerve at the knee to elicit twitch responses of the extensor digitorum of the foot at 0.15 Hz. A small slip (10-20%) of the tendon was dissected free under sterile technique and tied to a Grass FT 10 force transducer (Grass Instruments, Quincy, Mass.) at a baseline tension of 50 gm. Train-of four stimulation (TOF, 2 Hz for 2 sec) was interposed at appropriate points, especially 1-2 min prior to NMBA dosing and following recovery of twitch to 95% of baseline, where TOF was subsequently evaluated every 1-2 min.
Comparative studies of spontaneous recovery versus antagonism/reversal were done at least 3 estimated half-lives following dose-response studies.

[2] = tested on: twitch responses of the extensor digitorum of the foot (peroneal nerve stimulation); assay: Neuromuscular blocking potency and duration: twitch blockade dose-response in anesthetized rhesus monkeys; type: in vivo, rhesus monkey (Macaca mulatta); settings: for ED95: Macaca mulatta; for Duration (min ± SD): at the actual dose administered, injection to recovery of twitch to 95% of control; for Blockade (%) / Onset / Total Duration: Table 3, dose 0.064 ± 0.010 (gantacurium) or 0.060 ± 0.012 mg/kg (CW1759-50)
Protocol: as §1
Experiments were approved by the Institutional Animal Care and Use Committee of Weill Medical College of Cornell University (New York, N.Y.) and of Albany Medical College (Albany, N.Y.), where the studies were conducted. A colony of 10 adult male monkeys (Macaca mulatta) weighing 8-18 kg was studied at ˜6 week intervals. Animals were housed and cared for in accordance with the Guide for Care and Use of Laboratory Animals (National Research Council, Washington, D.C.). They were fed a standard Old World monkey diet, enriched with fruits and vegetables, and other dietary novelties and were followed throughout the study to verify normal health by physical examination, body weight, and clinical laboratory studies (Complete Blood Count, Blood Urea Nitrogen and creatinine, and liver function tests).
as §2, §3
(§4) Recordings of circulatory and neuromuscular data were made on a Grass 7B polygraph (Grass Instruments). A baseline period of 15-20 min was allowed for stabilization of recordings prior to dosing.^2
Dose-response curves for twitch blockade by gantacurium, CW 002, CW 011, cisatracurium, CW002-Cys, NB 938-69, NB 1064-81, NB 802-17 (CW 001), NB 832-65, and NB 1163-79, structures of which are all shown above, were generated as follows. […] Successive doses were separated by at least three estimated half lives beyond complete recovery of the previous dose to TOF of 110-120%, which is normal for these monkeys. Only the first one or two doses yielding 5 to 99% blockade were included from any single experiment for computation of dose-response data.
ED 50 and ED 95 were computed from the regression of log dose vs. the logit of percentage blockade of twitch.

[3] = tested on: blood pressure and heart rate; assay: Circulatory effects (arterial pressure, heart rate) during neuromuscular blockade in rhesus monkeys; type: in vivo, rhesus monkey (Macaca mulatta); settings: rhesus monkey
Protocol: Thus, the undesired side effect of tachycardia is not induced by a compound of the invention at a dose effective to induce NMB.
as §2, §4

[4] = Properties of cysteine solutions (solubility, natural pH); type: physicochemical; settings: cysteine in its base form
Protocol: To accomplish the reversal of a neuromuscular blockade generated by one of these agents, cysteine is administered by intravenous injection. However, the natural pH of cysteine hydrochloride solutions at concentrations of 50 mg/ml or more in aqueous solution (e.g., 0.9% saline) is very low, ranging from about pH 0.8 to about pH 1.0. Moreover, cysteine is not soluble at concentrations greater than 50 mg/ml in its base form, but higher concentrations of cysteine are more conveniently administered for reversal of neuromuscular blockades. For example, bolus administration of volumes greater than 50 ml over a time period of 5-10 sec is generally not convenient in an operating room. Therefore, to be administered to patients, cysteine solutions have been developed that have higher concentrations and higher pH values as described herein.

[5] = Table 1, calculated dose for 95% block of twitch, monkeys, read-out: ED 95

COc1ccc(C[N+]2(CCCOC(=O)/C=C(\Cl)C(=O)OCCC[N@+]3(C)CCc4cc(OC)c(OC)cc4[C@H]3Cc3cc(OC)c(OC)c(OC)c3)CCOCC2)cc1OC [Compound 1566-01]
Reversibility (Cysteine) [1]: Yes | ED95 [2]: 0.61 mg/kg | Duration (min ± SD) ([2]; Table 1): 8 min

COc1ccc(C[C@@H]2c3cc(OC)c(OC)cc3CC[N@@+]2(C)CCCOC(=O)/C(Cl)=C/C(=O)OCCC[N+]2(Cc3cc(OC)c(OC)c(OC)c3)CCOCC2)cc1OC [Compound 1566-22]
Reversibility (Cysteine) [1]: Yes | ED95 [2]: 0.19 mg/kg | Duration (min ± SD) ([2]; Table 1): 3.7 ± 0.3 min

COc1cc2c(cc1OC)[C@@H](Cc1cc(OC)c(OC)c(OC)c1)[N@+](C)(CCCOC(=O)/C(Cl)=C/C(=O)OCCC[N+]1(Cc3ccc4c(c3)OCCO4)CCOCC1)CC2 [Compound 1598-46]
Reversibility (Cysteine) [1]: Yes | ED95 [2]: 0.1 mg/kg | Duration (min ± SD) ([2]; Table 1): 6.8 ± 2.3 min

COc1ccc(C[C@@H]2c3cc(OC)c(OC)cc3CC[N@@+]2(C)CCCOC(=O)/C=C\C(=O)OCCC[N+]2(Cc3ccc(OC)cc3)CCOCC2)cc1 [Compound 1625-05]
Reversibility (Cysteine) [1]: Yes | ED95 [2]: 0.09 mg/kg | Duration (min ± SD) ([2]; Table 1): 6 min

COc1ccc(C[C@@H]2c3cc(OC)c(OC)cc3CC[N@@+]2(C)CCCOC(=O)/C=C\C(=O)OCCC[N+]2(Cc3ccc(OC)c(OC)c3)CCOCC2)cc1 [Compound 1726-01]
effect on blood pressure ([3]; 0.06 mg/kg dose, FIG. 2): no apparent effect on blood pressure | effect on heart rate / tachycardia ([3]; 0.06 mg/kg, dose effective to induce NMB): no apparent effect on heart rate | spontaneous reversal of blockade time (FIG. 4) ([1]; 100% block): more than 10 minutes | cysteine-induced reversal time (FIG. 4) ([1]; 100% block, 30 mg/kg L-cysteine hydrochloride): ≤ 2 min | 5-95% Interval with L-Cysteine ([1]; L-cysteine 30 mg/kg at +1 min following bolus 0.2 mg/kg (4x ED95), Point A): 1.9 ± 0.2 | 5-95% Interval with L-Cysteine ([1]; L-cysteine 30 mg/kg at +1 min following discontinuation of infusion (30-120 mins), Point B): 2.1 ± 0.2 | Reversibility (Cysteine) [1]: Yes | 5-95% Interval (Spontaneous Recovery) ([1]; bolus 0.2 mg/kg (4x ED95), Point A): 6.2 ± 0.2 | Total Duration (Spontaneous Recovery) ([1]; bolus 0.2 mg/kg (4x ED95)): 11.9 ± 0.3 min | 5-95% Interval (Spontaneous Recovery) ([1]; bolus 0.05-0.06 mg/kg (ED99)): 5.2 ± 0.2 | Total Duration (Spontaneous Recovery) ([1]; bolus 0.05-0.06 mg/kg (ED99)): 7.3 ± 0.3 min | dependence of recovery (5-95% twitch recovery interval) on dosage or duration of infusion (FIG. 5) ([1]; bolus or infusion, spontaneous or L-cysteine induced recovery, listed as 1759-50): not significantly effected by the previous duration of infusion; also recorded: unaffected by dosage or duration of infusion | 5-95% Interval (Spontaneous Recovery) ([1]; continuous infusions, 30-120 mins, Point B): 5.2 ± 0.3 | spontaneous reversal time (FIG. 3) ([1]; dose of 4x the ED95 dose): about 11 minutes | time to termination of blockade following L-cysteine administration (FIG. 3) ([1]; dose of 4x the ED95 dose, 30 mg/kg L-cysteine hydrochloride): about two | duration of neuromuscular blockade (spontaneous recovery, FIG. 2) ([2]; 0.06 mg/kg dose, rhesus monkey): about six | ED95 [2, 5]: 0.05 mg/kg | Duration (min ± SD) ([2]; Table 1): 7.6 ± 2.4 min | Blockade (%) [2]: 99.3 ± 0.2% | Onset [2]: 94.0 ± 8.7 s | Total Duration [2]: 8.2 ± 1.5 min | potency compared with gantacurium (% blockade, time to onset, total duration of effect) ([2]; Table 3 comparison): comparable to gantacurium in potency | ED95 (statistical analysis of dose-response study, FIG. 1) ([2]; rhesus monkeys): 0.054 ± 0.0022 mg/kg

COc1ccc(C[C@@H]2c3cc(OC)c(OC)cc3CC[N@@+]2(C)CCCOC(=O)/C=C\C(=O)OCCC[N+]2(Cc3cc(OC)c(OC)c(OC)c3)CCOCC2)cc1 [Compound 1759-58]
Reversibility (Cysteine) [1]: Yes | ED95 [2]: 0.064 mg/kg | Duration (min ± SD) ([2]; Table 1): 6 to 8 min

COc1ccc2c(c1)CC[N@@+](C)(CCCOC(=O)/C=C\C(=O)OCCC[N+]1(Cc3ccc(OC)c(OC)c3)CCOCC1)[C@@H]2Cc1ccc(OC)c(OC)c1 [Compound 1759-85]
Reversibility (Cysteine) [1]: Yes | ED95 [2, 5]: 0.22 mg/kg | Duration (min ± SD) ([2]; Table 1): 5.4 ± 1.3 min

COc1cc2c(cc1OC)[C@H](c1cc(OC)c(OC)c(OC)c1)[N@@+](C)(CCCOC(=O)/C=C(\Cl)C(=O)OCCC[N@+]1(C)CCc3cc(OC)c(OC)cc3[C@H]1Cc1cc(OC)c(OC)c(OC)c1)CC2 [Gantacurium, gantacurium, reference compound]
Blockade (%) [2]: 99.2 ± 0.5% | Onset [2]: 97.1 ± 11.7 s | Total Duration [2]: 7.4 ± 1.9 min | ED95 in a control study ([2]; rhesus monkeys, control study for comparison): 0.063 ± 0.0021 mg·kg

N[C@@H](CS)C(=O)O [cysteine]
solubility [4]: ≤ 50 mg/mL
